From ChEMBL document CHEMBL1201862, “PubChem BioAssay data set” (2004)
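Results reflect a 48-hour exposure of cells in 96-well plates to compound at five concentrations. Here, GI50 denotes the concentration required for 50% inhibition of growth.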 Active and inactive are the calls of the source. Cut-off read from the data, not from the text of the source: active = GI50 up to about 1.1 µM and inactive = higher.

Assays:
Assay in all cases: NCI tumour cell line growth inhibition, 48 h
NCI-H522 = tested on: NCI-H522
HT-29 = tested on: HT-29
KM12 = tested on: KM12
HOP-62 = tested on: HOP-62
NCI/ADR-RES = tested on: NCI/ADR-RES
SF-268 = tested on: SF-268
NCI-H226 = tested on: NCI-H226
CCRF-CEM = tested on: CCRF-CEM
Malme-3M = tested on: Malme-3M
OVCAR-5 = tested on: OVCAR-5
OVCAR-4 = tested on: OVCAR-4
SK-OV-3 = tested on: SK-OV-3
A549 = tested on: A549
HCC 2998 = tested on: HCC 2998
MCF7 = tested on: MCF7
IGROV-1 = tested on: IGROV-1
HCT-15 = tested on: HCT-15
SNB-75 = tested on: SNB-75
MOLT-4 = tested on: MOLT-4
SR = tested on: SR

SMILES | GI50 (NCI-H522) | GI50 (HT-29) | GI50 (KM12) | GI50 (HOP-62) | GI50 (NCI/ADR-RES) | GI50 (SF-268) | GI50 (NCI-H226) | GI50 (CCRF-CEM) | GI50 (Malme-3M) | GI50 (OVCAR-5) | GI50 (OVCAR-4) | GI50 (SK-OV-3) | GI50 (A549) | GI50 (HCC 2998) | GI50 (MCF7) | GI50 (IGROV-1) | GI50 (HCT-15) [µM] | GI50 (SNB-75) | GI50 (MOLT-4) | GI50 (SR)
CC1C(O)C2(Oc3cc4c(c5c3[C@@H](CC5O)[C@H]2C)CCC2Cc3nc5c(nc3C[C@@]42C)CC2CCC3C4=C[C@H]6O[C@@]7(O[C@@](C)(CO)C[C@@H]7O)C(C)[C@@]6(O)[C@]4(C)[C@@H](O)CC3[C@]2(C)C5)OC1(C)C (stereo not given in full) | 0.123 µM (active) | 0.0977 µM (active) | 0.241 µM (active) | 0.0715 µM (active) | 2.9 µM (inactive) | 0.0904 µM (active) | 0.135 µM (active) | 0.0582 µM (active) | 0.0927 µM (active) | 0.435 µM (active) | 0.498 µM (active) | 0.139 µM (active) | 0.0581 µM (active) | 0.536 µM (active) | 0.117 µM (active) | 0.128 µM (active) | 0.649 | 0.00543 µM (active) |  | 
Nc1ccc2[nH]c3c(-c4ccccc4)nccc3c2c1 | 59.2 µM (inactive) | 36.1 µM (inactive) | 53.7 µM (inactive) | > 84.5 µM (inactive) | 24 µM (inactive) | > 100 µM (inactive) | 27.8 µM (inactive) | 14.1 µM (inactive) | 76.4 µM (inactive) | > 88.3 µM (inactive) | 23.7 µM (inactive) | 54.2 µM (inactive) | 48.9 µM (inactive) | 28.8 µM (inactive) | > 45.1 µM (inactive) | 57.4 µM (inactive) | 41.3 | 29.6 µM (inactive) | 4.46 µM (inactive) | 
[N-]=[N+]=CC(=O)OCC(N)C(=O)O (stereo not given) | 0.54 µM (active) | 0.177 µM (active) | 0.406 µM (active) | 0.582 µM (active) | 2.95 µM (inactive) | 0.685 µM (active) | 625 µM (inactive) | 0.222 µM (active) | 54.8 µM (inactive) | 14.6 µM (inactive) | 14.1 µM (inactive) | 2.42 µM (inactive) | 0.557 µM (active) | 0.362 µM (active) | 0.217 µM (active) | 1.15 µM (inactive) | 0.297 | 21.3 µM (inactive) | 0.216 µM (active) | 
Nc1ncnc2c1ncn2[C@@H]1O[C@H](COP(=O)(O)O)[C@@H](O)[C@@H]1O | > 50 µM (inactive) | > 50 µM (inactive) | > 50 µM (inactive) | > 50 µM (inactive) | > 24.5 µM (inactive) | > 50 µM (inactive) | > 50 µM (inactive) | > 50 µM (inactive) | > 50 µM (inactive) | > 40.7 µM (inactive) | > 50 µM (inactive) | > 50 µM (inactive) | > 50 µM (inactive) | > 50 µM (inactive) | > 50 µM (inactive) | > 50 µM (inactive) | > 50 | > 50 µM (inactive) | > 38.8 µM (inactive) | 
CCCCC(C)C1CCC2(C)C=CC(=O)C(C)=C2C1O (stereo not given) | > 100 µM (inactive) | > 100 µM (inactive) | > 100 µM (inactive) | > 100 µM (inactive) | > 100 µM (inactive) | > 100 µM (inactive) | > 100 µM (inactive) | > 100 µM (inactive) |  | > 100 µM (inactive) | > 100 µM (inactive) | > 100 µM (inactive) | > 100 µM (inactive) | > 100 µM (inactive) | > 100 µM (inactive) | > 100 µM (inactive) | > 100 | > 100 µM (inactive) | > 100 µM (inactive) | 
Cc1ccc2c3c4c(ccc13)C(C)(C)OC4=C(C(C)C)C2=O | 26.8 µM (inactive) | 13.8 µM (inactive) | 54.3 µM (inactive) | 15.6 µM (inactive) | 19.5 µM (inactive) | 34.7 µM (inactive) | 5.4 µM (inactive) | 48.4 µM (inactive) | 39.3 µM (inactive) | > 100 µM (inactive) | 65.5 µM (inactive) | > 100 µM (inactive) | 55.5 µM (inactive) | 39.8 µM (inactive) | 44.7 µM (inactive) | 55.3 µM (inactive) | 32.5 | 26.4 µM (inactive) | 26.4 µM (inactive) | 
Cc1ccc(S(=O)(=O)N/N=C/c2c(O)ccc3ccccc23)cc1 | 17 µM (inactive) | 32.9 µM (inactive) | 18.9 µM (inactive) | 37.7 µM (inactive) | 27.7 µM (inactive) | 31.8 µM (inactive) |  | 36.7 µM (inactive) | 24.3 µM (inactive) | 29.6 µM (inactive) | 28.8 µM (inactive) | 7.87 µM (inactive) | 34 µM (inactive) | 21.4 µM (inactive) | 25.5 µM (inactive) | 6.68 µM (inactive) | 24.5 | 20.7 µM (inactive) | 20.5 µM (inactive) | 
CC(=O)OCC1OC(n2cc(F)c(=O)[nH]c2=O)C(NC(=O)OCc2ccccc2)C(OC(C)=O)C1OC(C)=O (stereo not given) | > 95.3 µM (inactive) | > 100 µM (inactive) | > 100 µM (inactive) | > 100 µM (inactive) | > 100 µM (inactive) | > 100 µM (inactive) | > 100 µM (inactive) | > 100 µM (inactive) | > 100 µM (inactive) | > 100 µM (inactive) | > 100 µM (inactive) | > 100 µM (inactive) | > 100 µM (inactive) | > 100 µM (inactive) | > 100 µM (inactive) | > 100 µM (inactive) | > 100 | > 100 µM (inactive) | > 100 µM (inactive) | 
CCOC(=O)c1ccc(N[C@@H]2c3cc4c(cc3C(c3cc(OC)c(O)c(OC)c3)[C@H]3C(=O)OCC32)OCO4)cc1O (stereo not given in full) | 0.665 µM (active) | 0.546 µM (active) | 0.579 µM (active) | 0.306 µM (active) | 4.43 µM (inactive) | 0.789 µM (active) | 0.256 µM (active) | 0.211 µM (active) | 0.757 µM (active) | 1.06 µM (active) | 7.69 µM (inactive) | 0.738 µM (active) | 0.0946 µM (active) | 1.92 µM (inactive) | 0.723 µM (active) | 2.68 µM (inactive) | 1.09 | 0.548 µM (active) | 0.0207 µM (active) | 
C=C1C(=O)C[C@@]23CCC[C@@]12CC(O)C3 (stereo not given in full) | 2.37 µM (inactive) | 14.6 µM (inactive) | 20.8 µM (inactive) | > 63 µM (inactive) | 13.4 µM (inactive) | 43.7 µM (inactive) | 21.2 µM (inactive) | 10.3 µM (inactive) | 0.855 µM (active) | 23.4 µM (inactive) | 18.6 µM (inactive) | 28.1 µM (inactive) | 30.3 µM (inactive) | > 46.2 µM (inactive) | 16.7 µM (inactive) | 3.93 µM (inactive) | 13 | 18.4 µM (inactive) | 23.4 µM (inactive) | 
O=C(CCC(=O)Nc1ccccc1C(F)(F)F)N/N=C1\C(=N\NC(=O)CCC(=O)Nc2ccccc2C(F)(F)F)C(c2ccc3c(c2)OCO3)Oc2ccccc21 (stereo not given) | 4.74 µM (inactive) | 35.9 µM (inactive) | 26.2 µM (inactive) | 4.28 µM (inactive) |  | 3.01 µM (inactive) | 10.6 µM (inactive) | 4.26 µM (inactive) | > 100 µM (inactive) | > 100 µM (inactive) | 9.95 µM (inactive) | 20.7 µM (inactive) | 7.16 µM (inactive) | > 100 µM (inactive) |  | 16.9 µM (inactive) | 5.33 | 10 µM (inactive) | 3.01 µM (inactive) | 3.59 µM (inactive)
O=c1cc(N2CCCC2)[nH]c(=O)n1-c1cccc(C(F)(F)F)c1 | > 100 µM (inactive) | > 100 µM (inactive) | > 100 µM (inactive) | > 100 µM (inactive) | > 100 µM (inactive) | > 100 µM (inactive) | > 100 µM (inactive) | > 100 µM (inactive) | > 100 µM (inactive) | > 100 µM (inactive) | > 100 µM (inactive) | > 100 µM (inactive) |  | > 100 µM (inactive) | > 100 µM (inactive) | > 100 µM (inactive) | > 100 | > 100 µM (inactive) | > 100 µM (inactive) | 
CS(=O)(=O)OCC1=C(COS(C)(=O)=O)C(=O)c2c(O)ccc(O)c2C1=O | > 100 µM (inactive) | > 100 µM (inactive) | > 100 µM (inactive) | > 100 µM (inactive) |  | > 100 µM (inactive) | > 100 µM (inactive) | > 100 µM (inactive) | > 100 µM (inactive) | > 100 µM (inactive) | > 100 µM (inactive) | > 100 µM (inactive) | > 100 µM (inactive) | > 100 µM (inactive) |  | > 100 µM (inactive) | > 100 | > 100 µM (inactive) | > 100 µM (inactive) | > 100 µM (inactive)
CN(C)CCCCN1CCc2c(n(C)c3ccccc23)C1=O | 33.3 µM (inactive) | 18.7 µM (inactive) | 44.4 µM (inactive) | 38.7 µM (inactive) | > 67.8 µM (inactive) | 31.3 µM (inactive) | > 59.7 µM (inactive) | 63.2 µM (inactive) | 19.2 µM (inactive) |  |  | > 63.7 µM (inactive) | 50.6 µM (inactive) |  | 36.6 µM (inactive) | 57.9 µM (inactive) | 27.9 | 22.3 µM (inactive) | 50.6 µM (inactive) | 
CCCCCCCCCCC(C)CCCCCCC(=O)O (stereo not given) | > 100 µM (inactive) | > 100 µM (inactive) | > 100 µM (inactive) | > 100 µM (inactive) |  | > 100 µM (inactive) | > 100 µM (inactive) | > 100 µM (inactive) | > 100 µM (inactive) | > 100 µM (inactive) | > 100 µM (inactive) | > 100 µM (inactive) | > 100 µM (inactive) | > 100 µM (inactive) |  | > 100 µM (inactive) | > 100 | > 100 µM (inactive) | > 100 µM (inactive) | > 100 µM (inactive)
